PubChem BioAssay AID1963954
The source made the active and inactive calls.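 How the source made its calls: active means IL-1b release lowered by over 30% against vehicle-treated cells of the same ATG16L1 genotype; inactive means the rest.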

Test system: mouse BMDM IL-1b secretion, LPS+ATP, ELISA
Assay: inhibitors of IL-1b release from macrophages, cell-based, mouse BMDMs, ATG16L1 wt and T300A, LPS+ATP (AID 1963954)
Settings: at 40 µM, stronger effect = lower value

For `CCC(C)(C)C(=O)C(=O)N1CCCC[C@H]1C(=O)N[C@H](CCc1ccc(OC)cc1)C(=O)N1[C@@H]2CC[C@H]1CC(Nc1nc(NCCc3sc(N)nc3C)nc(N3CCn4ncnc4C3)n1)C2` (stereo partly specified), the normalized IL-1b secretion (with LPS + ATP, ATG16L1 T300A) was 0.39 and the normalized IL-1b secretion (with LPS + ATP, ATG16L1 wt) was 0.37.
`CS(C)=O` was tested, and the normalized IL-1b secretion (unstimulated, ATG16L1 T300A) was 0.05 (inactive), the normalized IL-1b secretion (unstimulated, ATG16L1 wt) was 0 (inactive) and the normalized IL-1b secretion (with LPS + ATP, ATG16L1 T300A) was 1.39 (inactive). For the same molecule, the normalized IL-1b secretion (with LPS + ATP, ATG16L1 wt) was 1 (inactive).
